Experimental data as given in patent publication US20150328199A1, “METHODS AND COMPOSITIONS USING 4-AMINO-2-(2,6-DIOXO-PIPERIDINE-3-YL)-ISOINDOLINE-1,3-DIONE FOR TREATMENT OF CANCERS” (Celgene Corporation, priority 2014, published 2015).

Experiments:
[1] = Clinical pharmacokinetics of pomalidomide after single oral dose (non-compartmental analysis); type: in vivo, human
Protocol: Pomalidomide is absorbed with a maximum plasma concentration (Cmax) at a median time (tmax) between 2 hours and 3 hours after clinically relevant doses. Pomalidomide is >73% absorbed following administration of a single oral dose. […] Based on non-compartmental analysis, mean (percent coefficient of variation [%CV]) apparent volume of distribution (Vz/F) of pomalidomide after a single dose ranges from 74 L (20%) to 138 L (30%) across a dose range of 1 mg to 10 mg. Pomalidomide is extensively metabolized via multiple metabolic pathways and is eliminated in human via multiple pathways.

[2] = Comparative population pharmacokinetic analysis of pomalidomide with thalidomide and lenalidomide (two-compartment PPK model); type: in vivo, human; conditions: for drug exposure in central (plasma) compartment, patients versus healthy subjects: FIG. 7A, 8A; for drug exposure in peripheral compartment, patients versus healthy subjects: FIG. 7B, 8B; for relation of disease stage and peripheral compartment exposure in patients: FIG. 9
Description: Population pharmacokinetic analysis of pomalidomide was compared with that of 2-(2,6-dioxopiperidin-3-yl)-1H-isoindole-1,3(2H)-dione (“thalidomide”) and 3-(4-amino-1-oxo-1,3-dihydro-2H-isoindo1-2-yl)piperidine-2,6-dione (“lenalidomide” also known as “Revlimid”), on available data from healthy subjects and MM patients. The results of analyses are provided in Table 7 and FIGS. 3A to FIGS. 9. FIGS. 3A and 3B provide concentration vs. time profiles for thalidomide, lenalidomide and pomalidomide.
The data of thalidomide and revlimid are based on a population pharmacokinetic analysis performed on data from studies using a two-compartment PPK model.

Nc1cccc2c1C(=O)N(C1CCC(=O)NC1=O)C2=O (stereo not drawn) [Pomalidomide, 4-amino-2-(2,6-dioxo-piperidine-3-yl)-isoindoline-1,3-dione]
Tmax ([1]; human, plasma, oral, after clinically relevant doses, read-out: median time (tmax) of maximum plasma concentration): 2 to 3 h | half-life ([1]; human, plasma, oral, read-out: geometric mean terminal half-life (t1/2) (converted)): ~7.5 h | Cmax versus dose ([1]; single dose): less than dose proportional | systemic exposure (AUC) versus dose ([1]; single dose): approximately dose-proportional | absorbed ([1]; single oral dose): > 73% | drug exposure in central (plasma) compartment, patients versus healthy subjects [2]: comparable | drug exposure in peripheral compartment, patients versus healthy subjects [2]: higher drug exposure | relation of disease stage and peripheral compartment exposure in patients [2]: higher disease stage were correlated with higher peripheral compartment pomalidomide exposure | relation of disease stage and peripheral compartment exposure in patients ([2]; listed as 4-amino-2-(2,6-dioxo-piperidine-3-yl)-isoindoline-1,3-dione): higher disease stage was correlated with higher peripheral compartment | CL/F ([2]; HNV (healthy subjects)): 8.52 L/h | KA ([2]; HNV (healthy subjects)): 1.25 h⁻¹ | Q/CL ([2]; HNV (healthy subjects)): 11.8% | Q/F ([2]; HNV (healthy subjects)): 1.01 L/h | Tlag ([2]; HNV (healthy subjects)): 0.385 h | CL/F ([2]; Patients (MM)): 7.78 L/h | KA ([2]; Patients (MM)): 1.25 h⁻¹ | Q/CL ([2]; Patients (MM)): 48% | Q/F ([2]; Patients (MM)): 3.75 L/h | Tlag ([2]; Patients (MM)): 0.206 h

Nc1cccc2c1CN(C1CCC(=O)NC1=O)C2=O (stereo not drawn) [Revlimid, 3-(4-amino-1-oxo-1,3-dihydro-2H-isoindo1-2-yl)piperidine-2,6-dione]
drug exposure in central (plasma) compartment, patients versus healthy subjects [2]: comparable | drug exposure in peripheral compartment, patients versus healthy subjects [2]: comparable | CL/F ([2]; HNV (healthy subjects)): 16.8 L/h | KA ([2]; HNV (healthy subjects)): 5.41 h⁻¹ | Q/CL ([2]; HNV (healthy subjects)): 12.7% | Q/F ([2]; HNV (healthy subjects)): 2.14 L/h | Relative Potential of Deep Penetration ([2]; HNV (healthy subjects)): 2.1% | Tlag ([2]; HNV (healthy subjects)): 0.25 h | V2/F ([2]; HNV (healthy subjects)): 56.5 L | V3/F ([2]; HNV (healthy subjects)): 9.49 L | V3/V2 ([2]; HNV (healthy subjects)): 16.8% | CL/F ([2]; Patients (MM)): 10.2 L/h | Q/CL ([2]; Patients (MM)): 11.1% | Q/F ([2]; Patients (MM)): 1.13 L/h | Relative Potential of Deep Penetration ([2]; Patients (MM)): 1.9% | Tlag ([2]; Patients (MM)): 0.235 h | V2/F ([2]; Patients (MM)): 48.3 L | V3/F ([2]; Patients (MM)): 8.36 L | V3/V2 ([2]; Patients (MM)): 17.3%

O=C1CCC(N2C(=O)c3ccccc3C2=O)C(=O)N1 (stereo not drawn) [Thalidomide, 2-(2,6-dioxopiperidin-3-yl)-1H-isoindole-1,3(2H)-dione]
drug exposure in central (plasma) compartment, patients versus healthy subjects [2]: comparable | drug exposure in peripheral compartment, patients versus healthy subjects [2]: comparable | CL/F ([2]; HNV (healthy subjects)): 9.66 L/h | KA ([2]; HNV (healthy subjects)): 0.536 h⁻¹ | Q/CL ([2]; HNV (healthy subjects)): 4% | Q/F ([2]; HNV (healthy subjects)): 0.355 L/h | Relative Potential of Deep Penetration ([2]; HNV (healthy subjects)): 0.6% | V2/F ([2]; HNV (healthy subjects)): 83.3 L | V3/F ([2]; HNV (healthy subjects)): 13.5 L | V3/V2 ([2]; HNV (healthy subjects)): 16%
